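In this assay, cells in 96-well plates receive the compound at five concentrations for 48 hours. Endpoints are linearly interpolated between the surrounding concentrations. GI50 is the concentration that inhibits growth by half. TGI denotes the concentration required for complete inhibition of growth.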
Tests used:
Assay in all cases: NCI-60 cell line screen, 48 h
[1] = tested on: 786-0 renal
[2] = tested on: A498 renal
[3] = tested on: A549 NSCLC
[4] = tested on: ACHN renal
[5] = tested on: BT-549 breast
[6] = tested on: CAKI-1 renal
[7] = tested on: COLO 205 colon
[8] = tested on: EKVX NSCLC
[9] = tested on: HCC-2998 colon
[10] = tested on: HCT-116 colon
[11] = tested on: HCT-15 colon
[12] = tested on: HL-60(TB) leukemia
[13] = tested on: HOP-92 NSCLC
[14] = tested on: HS 578T breast
[15] = tested on: HT29 colon
[16] = tested on: IGROV1 ovarian
[17] = tested on: KM12 colon
[18] = tested on: LOX IMVI melanoma
[19] = tested on: M14 melanoma
[20] = tested on: MALME-3M melanoma
[21] = tested on: MCF7 breast
[22] = tested on: MDA-MB-231 breast
[23] = tested on: MDA-MB-435
[24] = tested on: MDA-MB-468 breast
[25] = tested on: MOLT-4 leukemia
[26] = tested on: NCI-H226 lung
[27] = tested on: NCI-H23 lung
[28] = tested on: NCI-H460 lung
[29] = tested on: NCI-H522 lung
[30] = tested on: NCI/ADR-RES ovarian
[31] = tested on: OVCAR-3 ovarian
[32] = tested on: OVCAR-5 ovarian
[33] = tested on: OVCAR-8 ovarian
[34] = tested on: PC-3 prostate
[35] = tested on: RXF 393 renal
[36] = tested on: SF-295 CNS
[37] = tested on: SF-539 CNS
[38] = tested on: SK-MEL-2 melanoma
[39] = tested on: SK-MEL-28 melanoma
[40] = tested on: SK-MEL-5 melanoma
[41] = tested on: SK-OV-3 ovarian
[42] = tested on: SN12C renal
[43] = tested on: SNB-19 CNS
[44] = tested on: SNB-75 CNS
[45] = tested on: SW-620 colon
[46] = tested on: T-47D breast
[47] = tested on: TK-10 renal
[48] = tested on: U251 CNS
[49] = tested on: UACC-257 melanoma
[50] = tested on: UACC-62 melanoma
[51] = tested on: UO-31 renal

Structure (SMILES): O/N=C(\CSc1nnc(-c2c[nH]c3ccccc23)n1-c1ccccc1)c1ccc(Br)cc1
- GI50 [1]: 6.85 µM
- TGI [1]: 27 µM
- GI50 [2]: 16.3 µM
- TGI [2]: 51.7 µM
- GI50 [3]: 2.49 µM
- TGI [3]: 6.66 µM
- GI50 [4]: 2.53 µM
- TGI [4]: 7.05 µM
- GI50 [5]: 3.16 µM
- TGI [5]: 7.25 µM
- GI50 [6]: 2.63 µM
- TGI [6]: 8.1 µM
- GI50 [7]: 3.8 µM
- TGI [7]: 16.6 µM
- GI50 [8]: 2.6 µM
- TGI [8]: 9.09 µM
- GI50 [9]: 3.36 µM
- TGI [9]: 12.3 µM
- GI50 [10]: 3.45 µM
- TGI [10]: 17.4 µM
- GI50 [11]: 2.11 µM
- TGI [11]: 4.72 µM
- GI50 [12]: 1.92 µM
- TGI [12]: 4.55 µM
- GI50 [13]: 3.66 µM
- TGI [13]: 24.1 µM
- GI50 [14]: 2.84 µM
- TGI [14]: 11.9 µM
- GI50 [15]: 2.23 µM
- TGI [15]: 5.03 µM
- GI50 [16]: 3.41 µM
- TGI [16]: 11.7 µM
- GI50 [17]: 4.15 µM
- TGI [17]: 29.2 µM
- GI50 [18]: 1.71 µM
- TGI [18]: 3.12 µM
- GI50 [19]: 3.4 µM
- TGI [19]: 17.6 µM
- GI50 [20]: 3.22 µM
- TGI [20]: 14.3 µM
- GI50 [21]: 3.49 µM
- TGI [21]: 15.3 µM
- GI50 [22]: 1.71 µM
- TGI [22]: 3.26 µM
- GI50 [23]: 2.01 µM
- TGI [23]: 3.89 µM
- GI50 [24]: 1.72 µM
- TGI [24]: 3.3 µM
- GI50 [25]: 2.09 µM
- TGI [25]: 4.8 µM
- GI50 [26]: 3.33 µM
- TGI [26]: 14.9 µM
- GI50 [27]: 4.31 µM
- TGI [27]: 19.6 µM
- GI50 [28]: 3.53 µM
- TGI [28]: 12.9 µM
- GI50 [29]: 2.52 µM
- TGI [29]: 7.7 µM
- GI50 [30]: 1.9 µM
- TGI [30]: 3.91 µM
- GI50 [31]: 4.98 µM
- TGI [31]: 23.8 µM
- GI50 [32]: 2.18 µM
- TGI [32]: 5.21 µM
- GI50 [33]: 2.45 µM
- TGI [33]: 6.5 µM
- GI50 [34]: 2.15 µM
- TGI [34]: 4.96 µM
- GI50 [35]: 1.75 µM
- TGI [35]: 3.65 µM
- GI50 [36]: 1.93 µM
- TGI [36]: 4.7 µM
- GI50 [37]: 4.04 µM
- TGI [37]: 14.2 µM
- GI50 [38]: 3.1 µM
- TGI [38]: 10.4 µM
- GI50 [39]: 3.4 µM
- TGI [39]: 12.5 µM
- GI50 [40]: 3.55 µM
- TGI [40]: 12.8 µM
- GI50 [41]: 2.53 µM
- TGI [41]: 6.03 µM
- GI50 [42]: 2.52 µM
- TGI [42]: 7.97 µM
- GI50 [43]: 4.33 µM
- TGI [43]: 19.8 µM
- GI50 [44]: 1.87 µM
- TGI [44]: 4.95 µM
- GI50 [45]: 3.28 µM
- TGI [45]: 12.1 µM
- GI50 [46]: 3.51 µM
- TGI [46]: 17.2 µM
- GI50 [47]: 2.8 µM
- TGI [47]: 7.63 µM
- GI50 [48]: 4.38 µM
- TGI [48]: 17.3 µM
- GI50 [49]: 3.87 µM
- TGI [49]: 17.5 µM
- GI50 [50]: 1.77 µM
- TGI [50]: 3.74 µM
- GI50 [51]: 2.29 µM
- TGI [51]: 7.81 µM
